The values below come from patent publication US11608501B2, “Methods for modifying RNA splicing” (PTC THERAPEUTICS, INC., priority 2017, dated 2023).

Assay [1] relates to RNA having an intronic REMS sequence. Briefly: RNA sequencing of compound-treated cells: iExon inclusion or eExon formation (ΔPSI, Fisher's Exact Test). The format is cell-based. Particulars: cells treated with Compound 64 (24 nm and 100 nm); genes listed in Table 10; adjusted Fisher's Exact Test p value. As for the experimental part:
Techniques known to one skilled in the art may be used to determine the amount of an RNA transcript(s). In some aspects, the amount of one, two, three or more RNA transcripts is measured using deep sequencing, such as ILLUMINA® RNASeq, ILLUMINA® next generation sequencing (NGS), ION TORRENT® RNA next generation sequencing, 454™ pyrosequencing, or Sequencing by Oligo Ligation Detection (SOLID™), Single Molecule, Real-Time (SMRT) sequencing, Nanopore sequencing. In other aspects, the amount of multiple RNA transcripts is measured using an exon array, such as the GENECHIP® human exon array. In certain aspects, the amount of one, two, three or more RNA transcripts is determined by RT-PCR. In other aspects, the amount of one, two, three or more RNA transcripts is measured by RT-qPCR or digital color-coded barcode technology. Techniques for conducting these assays are known to one skilled in the art. […]
Where “U” represents the value for probability of iExon inclusion (a+b)/2/[(a+b)/2+c] in the absence of the compound; and, where “C” represents the value for probability of iExon inclusion (a+b)/2/[(a+b)/2+c] in the presence of the compound. The values for “a” and “b” represent the number of reads supporting inclusion of an iExon in an RNA transcript. […] The value for “c” represents the number of reads supporting exclusion of an iExon. […]

Assay [2] concerns SH-SY5Y cells. Description: Endpoint RT-PCR of alternatively spliced mRNAs (iExon inclusion) in cultured cells. It is filed as cell-based, human. The note with it: cells treated at 10 nM, 1 μM or 10 μM vs DMSO; genes of FIGS. 2A-6A. Here is the method: SH-SY5Y cells derived from a bone marrow biopsy of a patient with neuroblastoma were plated at 600,000 cells/well in 2 mL DMEM with 10% FBS in 6-well plates, and incubated for 4 hours in a cell culture incubator (37° C., 5% CO2, 100% relative humidity). Cells were then treated with Compound 64 at different concentrations (in 0.1% DMSO) for 24 hours. After removal of the supernatant, cells were lysed in RLT buffer with ß-mercaptoethanol and total RNA was extracted according to the manufacturer's protocol (RNeasy Mini Kit, Qiagen, Inc.).
One-step RT-PCR was performed using AgPath-ID™ One-Step RT-PCR Reagents (Life Technologies, Inc.) using 50 ng total RNA as input. The following PCR conditions were used: Step 1: 48° C. (15 min), Step 2: 95° C. (10 min), Step 3: 95° C. (30 sec), Step 4: 55° C. (30 sec), Step 5: 68° C. (1 min), repeat Steps 3 to 5 for 34 cycles, then hold at 4° C. The presence of iExons within alternatively spliced mRNAs was identified using primers listed in Tables 13 through 19, which correspond to FIGS. 2, 3, 4 and 5. PCR products were separated on 2% agarose E-gels (Life Technologies, Inc.), stained with ethidium bromide and visualized using a gel imager (UVP). […]

As for `CC1(C)CC(Oc2ccc(-c3ccc(-c4cn[nH]c4)cc3O)nn2)CC(C)(C)N1` [Compound 64, 5-(1H-pyrazol-4-yl)-2-(6-((2,2,6,6-tetramethylpiperidin-4-yl)oxy)pyridazin-3-yl)phenol], in assay [1], the “effect on inclusion of an iExon or formation of an eExon with a corresponding change in isoform abundance” value is “statistically significant”. Moreover, the “iExon-containing PCR product on agarose gel” value in assay [2] is reported as “appearance of a slower migrating PCR product containing the intronic-derived exon”.
